The source made the active and inactive calls. The rule behind the calls is not given here.

Data set [1] deals with Human immunodeficiency virus 1. Type of data set: functional, organism-based. To be noted: Human immunodeficiency virus 1, 3B, MT4, 96 h.
The test system of data set [2] is Human alphaherpesvirus 2. Put plainly: Antiviral activity against HSV-2 assessed as inhibition of viral replication. The format is functional, organism-based.
Data set [3] relates to Mammalian orthoreovirus 1. Description: Antiviral activity against Reovirus 1 assessed as inhibition of viral replication. Type of data set: functional, organism-based.
Data set [4] relates to Human immunodeficiency virus 1. Put plainly: microbe, parasite or virus in culture. To be noted: Human immunodeficiency virus 1, 3B, MT4, 96 h.
Data set [5] concerns Feline coronavirus. Put plainly: Antiviral activity against Feline coronavirus assessed as inhibition of viral replication. The format is functional, organism-based.
Data set [6] is described as follows: Cytotoxicity against human MT4 cells after 4 days by MTT assay. The format is cell-based.
For data set [7], the system named is Human respirovirus 3. Put plainly: Antiviral activity against Parainfluenza 3 virus assessed as inhibition of viral replication. The format is functional, organism-based.
Data set [8] concerns Sindbis virus. Description: Antiviral activity against Sindbis virus assessed as inhibition of viral replication. The format is functional, organism-based.
Data set [9] has as its system Coxsackievirus B4. Put plainly: Antiviral activity against Coxsackievirus B4 assessed as inhibition of viral replication. Type of data set: functional, organism-based.
The subject of data set [10] is Punta Toro virus. Description: Antiviral activity against Punta Toro virus assessed as inhibition of viral replication. The format is functional, organism-based.
Data set [11] relates to Human alphaherpesvirus 1. Description: Antiviral activity against HSV1 assessed as inhibition of viral replication. The format is functional, organism-based.
For data set [12], the system named is Vaccinia virus. Put plainly: Antiviral activity against Vaccinia virus assessed as inhibition of viral replication. The format is functional, organism-based. The conditions noted are these: Orthopoxvirus vaccinia.
In data set [13] the test system is Yellow fever virus. Description: Antiviral activity against Yellow fever virus assessed as inhibition of viral replication. Type of data set: functional, organism-based.
The nature of data set [14]: Inhibition of DNA-dependent DNA polymerase activity of HIV1 reverse transcriptase p66/p66 homodimer using activated DNA and [alpha-32P]dATP after 30 mins by liquid scintillation counting. Set-up: species or system Human immunodeficiency virus 1.
A short description of data set [15]: in vitro. The conditions noted are these: human, MT4 cells.
For data set [16], the system named is Dengue virus. Description: Antiviral activity against Dengue virus assessed as inhibition of viral replication. Type of data set: functional, organism-based.
The test system of data set [17] is Vesicular stomatitis virus. Put plainly: Antiviral activity against Vesicular stomatitis virus assessed as inhibition of viral replication. Type of data set: functional, organism-based.
Data set [18] relates to Respiratory syncytial virus. Put plainly: Antiviral activity against Respiratory syncytial virus assessed as inhibition of viral replication. The format is functional, organism-based.
In data set [19] the test system is Human immunodeficiency virus 2. Description: Antiviral activity against Human immunodeficiency virus type 2 ROD infected in human MT4 cells assessed as inhibition of virus-induced cytopathic effect after 4 days by MTT assay. To be noted: ISOLATE ROD. The format is functional, organism-based. For orientation: Protection from cytopathic effect is a common read-out in antiviral testing.

In data set [20] the test system is Rift Valley fever virus. Put plainly: Antiviral activity against Rift Valley fever virus assessed as inhibition of viral replication. Type of data set: functional, organism-based.
Data set [21] concerns Human immunodeficiency virus 2. Description: Antiviral activity against Human immunodeficiency virus type 2 ROD infected in human CEM cells assessed as inhibition of virus-induced giant cell formation after 4 days by microscopic analysis. Type of data set: functional, organism-based. The conditions noted are these: ISOLATE ROD, CCRF-CEM.
Data set [22] can be described thus: in vitro. To be noted: human, MT4 cells. This is another data set of the same source.
Data set [23] deals with Human immunodeficiency virus type 1 reverse transcriptase (Human immunodeficiency virus 1, UniProt Q72547). Description: Inhibition of RNA-dependent DNA polymerase activity of HIV1 reverse transcriptase p66/p51 heterodimer using [8-3H]dGTP as substrate after 30 mins by liquid scintillation counting.
For data set [24], the system named is West Nile virus. Description: Antiviral activity against West Nile virus assessed as inhibition of viral replication. The format is functional, organism-based.

In general, EC50 refers to the concentration that produces a half-maximal response. As a reminder, the CC50 is the concentration giving 50% cytotoxicity. Usually Ki stands for a dissociation constant, usually derived from enzyme kinetics or from competition with a known ligand. Low readings indicate tighter binding, high ones weaker binding. Take `O=C(c1cc(Br)cc(Br)c1)c1cc(Cl)ccc1OCCn1ccc(=O)[nH]c1=O`: the EC50 is over 237000 nM in data set [1] and 32 nM in [4]. In addition, the outcome in [2], in data set [3], in data set [5], in data set [7], in data set [8] and in data set [9] was inactive. For the same compound, the outcome in data set [10], in [11], in data set [12], in [13], in data set [16] and in data set [17] was inactive. In addition, the result in [18], in data set [19], in data set [20], in [21] and in data set [24] was inactive. In addition, the CC50 at 96 h in [6] is over 236000 nM. The Ki was found to be 2300 nM in data set [14] and 470 nM in data set [23]. Besides, the selectivity ratio in data set [15] is over 7390; in [22], 1.

Turning to `Cc1cccc(C(=O)c2cc(Cl)ccc2OCCn2ccc(=O)[nH]c2=O)c1`, the EC50 in data set [1] turned out to be 52000 nM; in data set [4] it was 52 nM. Besides, the outcome in data set [2], in [3], in [5], in data set [7], in data set [8] and in [9] was inactive. Moreover, the result in data set [10], in [11], in [12], in data set [13], in data set [16] and in data set [17] was inactive. Moreover, the outcome in data set [18], in [19], in [20], in data set [21] and in data set [24] was inactive. This compound also returned a CC50 at 96 h in [6] of over 325000 nM. Further, the Ki was 490 nM in data set [14] and 210 nM in [23]. Moreover, the selectivity ratio in data set [15] was over 6250; in data set [22], over 6.

As to `Cc1cc(C)cc(C(=O)c2cc(Cl)ccc2OCCn2c(C)cc(=O)[nH]c2=O)c1`, the values for the EC50 in data set [1] and in data set [4] were 4090 nM and 20 nM, respectively. For the same compound, the outcome in data set [2], in data set [3], in [5], in data set [7], in data set [8] and in [9] was inactive. The result in data set [10], in data set [11], in data set [12], in data set [13], in data set [16] and in [17] was inactive. In addition, the outcome in data set [18], in [19], in [20], in data set [21] and in data set [24] was inactive. This compound also displayed a CC50 at 96 h in data set [6] of over 303000 nM. The results for the Ki in [14] and in [23] were 730 nM and 1700 nM, respectively. For the same compound, the selectivity ratio in [15] is over 15100; in [22] it was over 74.

On to `Cc1ccc(OCCn2ccc(=O)[nH]c2=O)c(C(=O)c2ccccc2)c1`, for which the 50% effective concentration (EC50) was over 357000 nM in [1] and 310 nM in data set [4]. The outcome in [2], in data set [3], in data set [5], in data set [7], in data set [8] and in data set [9] was inactive. Moreover, the outcome in [10], in data set [11], in data set [12], in [13], in data set [16] and in data set [17] was inactive. Besides, the outcome in data set [18], in [19], in [20], in [21] and in data set [24] was inactive. The CC50 at 96 h in data set [6] is over 357000 nM. For the same compound, the Ki in data set [14] was 5600 nM; in data set [23] it was 1700 nM. Moreover, the selectivity ratio in data set [15] was over 1140; in [22], 1.

In the case of `O=C(c1ccccc1)c1cc(Br)ccc1OCCn1ccc(=O)[nH]c1=O`, the EC50 in [1] is over 301000 nM; in [4], 65 nM. The result in data set [2], in [3], in [5], in data set [7], in data set [8] and in data set [9] was inactive. The outcome in data set [10], in data set [11], in data set [12], in data set [13], in data set [16] and in data set [17] was inactive. Also, the outcome in data set [18], in [19], in data set [20], in data set [21] and in [24] was inactive. This compound showed a CC50 at 96 h in [6] of over 301000 nM. In addition, the values for the Ki in data set [14] and in [23] were 2000 nM and 450 nM, respectively. In addition, the figures for the selectivity ratio in data set [15] and in data set [22] were over 4630 and 1, respectively.

On to `O=C(c1ccccc1)c1cc(F)ccc1OCCn1ccc(=O)[nH]c1=O`, for which the EC50 in [1] turned out to be 171000 nM; in [4] it was 510 nM. For the same compound, the result in data set [2], in data set [3], in [5], in data set [7], in [8] and in data set [9] was inactive. For the same compound, the result in data set [10], in data set [11], in data set [12], in data set [13], in data set [16] and in data set [17] was inactive. Also, the outcome in [18], in data set [19], in data set [20], in [21] and in data set [24] was inactive. The compound further returned a CC50 at 96 h in data set [6] of over 353000 nM. For the same compound, the Ki in data set [14] was found to be 2900 nM; in data set [23], 2600 nM. Besides, the selectivity ratio in data set [15] is over 694; in [22], over 2.

Turning to `O=C(c1ccccc1)c1cc(Cl)ccc1OCCn1ccc(=O)[nH]c1=O`, the EC50 was over 337000 nM in data set [1] and 89 nM in [4]. Further, the outcome in data set [2], in data set [3], in data set [5], in data set [7], in data set [8] and in data set [9] was inactive. Also, the outcome in data set [10], in data set [11], in data set [12], in data set [13], in [16] and in [17] was inactive. Besides, the result in [18], in [19], in [20], in data set [21] and in data set [24] was inactive. The CC50 at 96 h in data set [6] is over 337000 nM. Besides, the Ki in data set [14] worked out at 980 nM; in [23], 650 nM. Further, the selectivity ratio is over 3790 in data set [15] and 1 in [22].
